In PubChem BioAssay (NCI):
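Where inhibition never reached the appropriate level, the endpoint shown equals the highest concentration tested. Otherwise, values were interpolated linearly from a five-concentration, 48-hour dose response in 96-well plates. TGI: total growth inhibition.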

Experiments:
Experiment in all cases: NCI-60 cell line screen, 48 h
[1] = test system: 786-0 renal
[2] = test system: A498 renal
[3] = test system: BT-549 breast
[4] = test system: CCRF-CEM leukemia
[5] = test system: EKVX NSCLC
[6] = test system: HOP-62 NSCLC
[7] = test system: HS 578T breast
[8] = test system: MCF7 breast
[9] = test system: MDA-N
[10] = test system: NCI-H460 lung
[11] = test system: OVCAR-4 ovarian
[12] = test system: OVCAR-5 ovarian
[13] = test system: OVCAR-8 ovarian
[14] = test system: SF-268 CNS
[15] = test system: SK-MEL-5 melanoma
[16] = test system: SN12C renal
[17] = test system: SNB-75 CNS
[18] = test system: SW-620 colon
[19] = test system: UACC-62 melanoma
[20] = test system: UO-31 renal

Structure (SMILES) | TGI [1] | TGI [2] | TGI [3] | TGI [4] | TGI [5] | TGI [6] | TGI [7] | TGI [8] | TGI [9] | TGI [10] | TGI [11] | TGI [12] | TGI [13] | TGI [14] | TGI [15] | TGI [16] | TGI [17] | TGI [18] | TGI [19] | TGI [20]
CCC(=O)O[C@H]1CC[C@H]2[C@@H]3CCC4=C/C(=N/OC(=O)c5cccc6cc7ccccc7nc56)CC[C@]4(C)[C@H]3CC[C@]12C | > 100 µM | > 100 µM | > 100 µM | > 100 µM | > 100 µM | > 100 µM | > 100 µM | > 100 µM | > 100 µM | > 100 µM | > 100 µM | > 100 µM | > 100 µM | > 100 µM | 31.5 µM | > 100 µM | > 100 µM | > 100 µM | > 100 µM | –
O=C(N(O)c1ccccc1Cl)C(O)(c1ccccc1)c1ccccc1 | > 100 µM | > 100 µM | > 100 µM | 41 µM | > 100 µM | > 100 µM | > 100 µM | > 100 µM | > 100 µM | > 100 µM | > 100 µM | > 100 µM | > 100 µM | > 100 µM | > 100 µM | > 100 µM | – | > 100 µM | > 100 µM | 57.9 µM
COC(=O)C1=C(O)c2ccc(Cl)cc2S(=O)(=O)N1C | > 100 µM | > 100 µM | > 100 µM | > 100 µM | > 100 µM | – | > 100 µM | > 100 µM | > 100 µM | > 100 µM | > 100 µM | > 100 µM | – | > 100 µM | > 100 µM | > 100 µM | – | > 100 µM | > 100 µM | –
COc1ccc(/C=C2\c3cc(OC)c(OC)cc3CCN2C(=O)c2ccccc2)cc1OC | > 100 µM | > 100 µM | > 100 µM | 98.4 µM | > 100 µM | > 100 µM | > 100 µM | > 100 µM | 65.2 µM | 87.6 µM | – | > 100 µM | > 100 µM | > 100 µM | 45 µM | > 100 µM | > 100 µM | > 100 µM | > 100 µM | > 100 µM
N#Cc1c(-c2ccc(Cl)cc2)c(C#N)c(=O)n(NS(=O)(=O)c2ccccc2)c1O | > 100 µM | 70.1 µM | 32.8 µM | 88.6 µM | > 100 µM | > 100 µM | 63.9 µM | 42.9 µM | > 100 µM | 55 µM | > 100 µM | > 100 µM | > 100 µM | > 100 µM | 32.3 µM | > 100 µM | > 100 µM | > 100 µM | 29.6 µM | –
